Data published in ChEMBL document CHEMBL1201862, “PubChem BioAssay data set” (2004).
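48-hour exposure; five concentrations; linearly interpolated endpoints. Here, GI50 denotes the concentration required for 50% inhibition of growth.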 Active and inactive are the calls of the source. Cut-off read from the data, not from the text of the source: active = GI50 up to about 1.1 µM and inactive = higher.

Columns and labels:
Test in all cases: DTP human tumour cell line panel, 48 h
HOP-62 = system: HOP-62
ACHN = system: ACHN
RXF 393 = system: RXF 393
SK-MEL-2 = system: SK-MEL-2
RPMI-8226 = system: RPMI-8226
U-251 = system: U-251
A498 = system: A498
786-0 = system: 786-0
SF-295 = system: SF-295
SNB-19 = system: SNB-19
MDA-MB-231 = system: MDA-MB-231
IGROV-1 = system: IGROV-1
MDA-MB-435 = system: MDA-MB-435
Hs-578T = system: Hs-578T
TK-10 = system: TK-10
KM12 = system: KM12
NCI-H23 = system: NCI-H23
Malme-3M = system: Malme-3M
CCRF-CEM = system: CCRF-CEM
HOP-92 = system: HOP-92
LOX IMVI = system: LOX IMVI
T47D = system: T47D
OVCAR-3 = system: OVCAR-3
OVCAR-4 = system: OVCAR-4
MDA-N = system: MDA-N
MOLT-4 = system: MOLT-4
DU-145 = system: DU-145
NCI-H460 = system: NCI-H460
HCT-116 = system: HCT-116
HL-60 = system: HL-60
HT-29 = system: HT-29
SF-539 = system: SF-539
SK-MEL-5 = system: SK-MEL-5
HCC 2998 = system: HCC 2998
COLO 205 = system: COLO 205
OVCAR-8 = system: OVCAR-8
BT-549 = system: BT-549
OVCAR-5 = system: OVCAR-5
UACC-62 = system: UACC-62
SK-OV-3 = system: SK-OV-3
HCT-15 = system: HCT-15
K562 = system: K562
UACC-257 = system: UACC-257
SF-268 = system: SF-268
SNB-75 = system: SNB-75
NCI/ADR-RES = system: NCI/ADR-RES
PC-3 = system: PC-3
CAKI-1 = system: CAKI-1
EKVX = system: EKVX
NCI-H226 = system: NCI-H226
M14 = system: M14
NCI-H522 = system: NCI-H522
MCF7 = system: MCF7
SN12C = system: SN12C
A549 = system: A549
SK-MEL-28 = system: SK-MEL-28
SW-620 = system: SW-620

Measured: GI50

CC(C)Cn1cnnc1NS(=O)(=O)c1cc(C(=O)NN)c(Cl)cc1S
> 10 µM: HCT-15
inactive: HOP-62 > 10 µM | ACHN > 10 µM | RXF 393 > 10 µM | SK-MEL-2 > 10 µM | RPMI-8226 > 10 µM | U-251 > 10 µM | A498 > 10 µM | 786-0 > 10 µM | SF-295 > 10 µM | SNB-19 > 10 µM | MDA-MB-231 > 10 µM | IGROV-1 > 10 µM | MDA-MB-435 > 10 µM | Hs-578T > 10 µM | TK-10 > 10 µM | KM12 > 10 µM | NCI-H23 > 10 µM | Malme-3M > 10 µM | CCRF-CEM > 10 µM | HOP-92 > 10 µM | LOX IMVI > 10 µM | T47D > 10 µM | OVCAR-3 > 10 µM | OVCAR-4 > 10 µM | MDA-N > 10 µM | MOLT-4 > 10 µM | DU-145 > 10 µM | NCI-H460 > 10 µM | HCT-116 > 10 µM | HL-60 > 10 µM | HT-29 > 10 µM | SF-539 > 10 µM | SK-MEL-5 > 10 µM | HCC 2998 > 10 µM | COLO 205 > 10 µM | OVCAR-8 > 10 µM | BT-549 > 10 µM | OVCAR-5 > 10 µM | UACC-62 > 10 µM | SK-OV-3 > 10 µM | K562 > 10 µM | UACC-257 > 10 µM | SF-268 > 10 µM | SNB-75 > 10 µM | NCI/ADR-RES > 10 µM | PC-3 > 10 µM | CAKI-1 > 10 µM | EKVX > 10 µM | NCI-H226 > 10 µM | M14 > 10 µM | NCI-H522 > 10 µM | MCF7 > 10 µM | SN12C > 10 µM | A549 > 10 µM | SK-MEL-28 > 10 µM | SW-620 > 10 µM
